For orientation: EC50 means the concentration that produces a half-maximal response. Lower therefore signals an effect from little substance.

The values that follow come from patent US20260132164A1, “PNU ANTHRACYCLINE DERIVATIVES AND METHODS OF USE THEREOF” (Merck Sharp & Dohme LLC, priority 2022, published 2026).

Structures are written as SMILES.

One assay relates to BxPC3. Kind of assay: CellTiter-Glo 2.0 Cytotoxicity Assay. The note with it: CellTiter-Glo 2.0 luminescence; compound added day 1, read on day 4 or 5; 3000 cells/well. It is filed as cell-based. On the technique in general: In ATP-based viability assays light output follows the ATP content of the culture.
For `COc1cccc2c1C(=O)c1c(O)c3c(c(O)c1C2=O)C[C@@](O)(C(=O)NCCN(C)C(=O)C1CCNC1)C[C@@H]3O[C@H]1C[C@H]2[C@H](O[C@@H]3[C@@H](OC)OCCN32)[C@H](C)O1` (single isomer, unassigned) [Compound 50], the EC50 turned out to be 20 nM.

Still in this assay, the particulars now being: Homo sapiens, BXPC-3, CellTiter-Glo 2.0 luminescence; compound added day 1, read on day 4 or 5; 3000 cells/well.
Take `COc1cccc2c1C(=O)c1c(O)c3c(c(O)c1C2=O)C[C@@](O)(C(=O)Nc1ccc(CN)cc1)C[C@@H]3O[C@H]1C[C@H]2[C@H](O[C@@H]3[C@@H](OC)OCCN32)[C@H](C)O1` [Compound 83]: the concentration giving a half-maximal response (EC50) is 11 nM.

The compound `COc1cccc2c1C(=O)c1c(O)c3c(c(O)c1C2=O)C[C@@](O)(C(=O)NC1CCNC1)C[C@@H]3O[C@H]1C[C@H]2[C@H](O[C@@H]3[C@@H](OC)OCCN32)[C@H](C)O1` (some centres unmarked) [Compound 12] yielded an EC50 of 7.7 nM.

`COc1cccc2c1C(=O)c1c(O)c3c(c(O)c1C2=O)C[C@@](O)(C(=O)NCC1(F)CNC1)C[C@@H]3O[C@H]1C[C@H]2[C@H](O[C@@H]3[C@@H](OC)OCCN32)[C@H](C)O1` [Compound 36]: the EC50 came out at 0.42 nM.

On to `COc1cccc2c1C(=O)c1c(O)c3c(c(O)c1C2=O)C[C@@](O)(C(=O)N1CC(CN)C1)C[C@@H]3O[C@H]1C[C@H]2[C@H](O[C@@H]3[C@@H](OC)OCCN32)[C@H](C)O1` [Compound 2], for which the midpoint of the response, the EC50, lay at 22 nM. This EC50 is about 52-fold higher than that of the compound before.

In turn, `COc1cccc2c1C(=O)c1c(O)c3c(c(O)c1C2=O)C[C@@](O)(C(=O)Nc1ccc(N)cc1)C[C@@H]3O[C@H]1C[C@H]2[C@H](O[C@@H]3[C@@H](OC)OCCN32)[C@H](C)O1` [Compound 77] displayed an EC50 of 0.11 nM.

For `COc1cccc2c1C(=O)c1c(O)c3c(c(O)c1C2=O)C[C@@](O)(C(=O)N[C@H]1C[C@@H](N)C1)C[C@@H]3O[C@H]1C[C@H]2[C@H](O[C@@H]3[C@@H](OC)OCCN32)[C@H](C)O1` [Compound 53], the EC50 was found to be 7.7 nM. This EC50 is about 70-fold higher than that of the compound before.

As for `COc1cccc2c1C(=O)c1c(O)c3c(c(O)c1C2=O)C[C@@](O)(C(=O)N1CC2(CCNC2)C1)C[C@@H]3O[C@H]1C[C@H]2[C@H](O[C@@H]3[C@@H](OC)OCCN32)[C@H](C)O1` [Compound 28], the EC50 stood at 478 nM.

Take `COc1cccc2c1C(=O)c1c(O)c3c(c(O)c1C2=O)C[C@@](O)(C(=O)NCC[C@@H]1CCCN1)C[C@@H]3O[C@H]1C[C@H]2[C@H](O[C@@H]3[C@@H](OC)OCCN32)[C@H](C)O1` [Compound 40]: the EC50 came out at 4.3 nM.

`COc1cccc2c1C(=O)c1c(O)c3c(c(O)c1C2=O)C[C@@](O)(C(=O)NC[C@H]1CNC(=O)C1)C[C@@H]3O[C@H]1C[C@H]2[C@H](O[C@@H]3[C@@H](OC)OCCN32)[C@H](C)O1` [Compound 85] returned an EC50 of 0.4 nM.

As for `COc1cccc2c1C(=O)c1c(O)c3c(c(O)c1C2=O)C[C@@](O)(C(=O)NCCC(N)C(F)F)C[C@@H]3O[C@H]1C[C@H]2[C@H](O[C@@H]3[C@@H](OC)OCCN32)[C@H](C)O1` (some centres unmarked) [Compound 74], the EC50 was determined as 0.2 nM.

Turning to `COc1cccc2c1C(=O)c1c(O)c3c(c(O)c1C2=O)C[C@@](O)(C(=O)NCCN(C)C(=O)C1(N)CCCC1)C[C@@H]3O[C@H]1C[C@H]2[C@H](O[C@@H]3[C@@H](OC)OCCN32)[C@H](C)O1` [Compound 48], the EC50 is 0.31 nM. This EC50 lies about 1.5-fold higher than the previous one.

`COc1cccc2c1C(=O)c1c(O)c3c(c(O)c1C2=O)C[C@@](O)(C(=O)NCCNC(=O)CN)C[C@@H]3O[C@H]1C[C@H]2[C@H](O[C@@H]3[C@@H](OC)OCCN32)[C@H](C)O1` [Compound 4] returned an EC50 of 13 nM.

As for `COc1cccc2c1C(=O)c1c(O)c3c(c(O)c1C2=O)C[C@@](O)(C(=O)Nc1cc(N)n(C)n1)C[C@@H]3O[C@H]1C[C@H]2[C@H](O[C@@H]3[C@@H](OC)OCCN32)[C@H](C)O1` [Compound 81], the EC50 was 0.4 nM. Against the preceding compound, the EC50 is about 32-fold lower.
